Assay results from PubChem BioAssay (NCI).
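Each compound was tested at five concentrations against cells in 96-well plates for 48 hours. TGI is the concentration that stops growth completely.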

Legend:
Assay in all cases: NCI tumour cell line growth inhibition, 48 h
OVCAR-3 ovarian = test system: OVCAR-3 ovarian
SNB-78 CNS = test system: SNB-78 CNS
LXFL 529 NSCLC = test system: LXFL 529 NSCLC
KM20L2 colon = test system: KM20L2 colon
MALME-3M melanoma = test system: MALME-3M melanoma
NCI-H522 lung = test system: NCI-H522 lung
RPMI-8226 leukemia = test system: RPMI-8226 leukemia
HOP-62 NSCLC = test system: HOP-62 NSCLC
OVCAR-4 ovarian = test system: OVCAR-4 ovarian
XF 498 CNS = test system: XF 498 CNS
SNB-75 CNS = test system: SNB-75 CNS
IGROV1 ovarian = test system: IGROV1 ovarian
LOX IMVI melanoma = test system: LOX IMVI melanoma
CAKI-1 renal = test system: CAKI-1 renal
ACHN renal = test system: ACHN renal
NCI-H226 lung = test system: NCI-H226 lung
U251 CNS = test system: U251 CNS
HOP-18 NSCLC = test system: HOP-18 NSCLC
EKVX NSCLC = test system: EKVX NSCLC
DLD-1 colon = test system: DLD-1 colon
786-0 renal = test system: 786-0 renal
SF-268 CNS = test system: SF-268 CNS
SN12C renal = test system: SN12C renal
UACC-257 melanoma = test system: UACC-257 melanoma
K-562 leukemia = test system: K-562 leukemia
OVCAR-8 ovarian = test system: OVCAR-8 ovarian
SF-539 CNS = test system: SF-539 CNS
SK-OV-3 ovarian = test system: SK-OV-3 ovarian
UO-31 renal = test system: UO-31 renal
A498 renal = test system: A498 renal
A549 NSCLC = test system: A549 NSCLC
TK-10 renal = test system: TK-10 renal
RXF 393 renal = test system: RXF 393 renal
HOP-92 NSCLC = test system: HOP-92 NSCLC
OVCAR-5 ovarian = test system: OVCAR-5 ovarian
NCI-H23 lung = test system: NCI-H23 lung
HCC-2998 colon = test system: HCC-2998 colon
HCT-116 colon = test system: HCT-116 colon
SK-MEL-5 melanoma = test system: SK-MEL-5 melanoma
HCT-15 colon = test system: HCT-15 colon
M19-MEL melanoma = test system: M19-MEL melanoma
UACC-62 melanoma = test system: UACC-62 melanoma
SK-MEL-2 melanoma = test system: SK-MEL-2 melanoma
DMS 273 small cell lung = test system: DMS 273 small cell lung
M14 melanoma = test system: M14 melanoma
SK-MEL-28 melanoma = test system: SK-MEL-28 melanoma
CCRF-CEM leukemia = test system: CCRF-CEM leukemia
RXF-631 renal = test system: RXF-631 renal
COLO 205 colon = test system: COLO 205 colon
NCI-H460 lung = test system: NCI-H460 lung
SW-620 colon = test system: SW-620 colon
KM12 colon = test system: KM12 colon
DMS 114 small cell lung = test system: DMS 114 small cell lung
SNB-19 CNS = test system: SNB-19 CNS

Measured: TGI

COC(=O)C(CC(C)=O)CS(=O)(=O)CC(=O)C(=O)Nc1cccc([N+](=O)[O-])c1 (centres undefined)
> 100 µM: all assays above
